According to patent US10681909B2, “Herbicidal triazoles” (FMC Corporation, priority 2014, dated 2020):

Assays:
chamomile = test: Test D preemergence; assay type: in vivo, Matricaria inodora; settings: for Plant response rating (0 to 100), Chamomile: 16 g ai/ha, 0 is no effect, 100 is complete control; for Plant response rating: Chamomile: scale 0 to 100
Excerpt: (§1) Seeds of plant species selected from bluegrass (annual bluegrass, Poa annua), blackgrass (Alopecurus myosuroides), canarygrass (Phalaris minor), chickweed (common chickweed, Stellaria media), galium (catchweed bedstraw, Galium aparine), bromegrass, down (downy bromegrass, Bromus tectorum), Russian thistle (Salsola kali), field poppy (Papaver rhoeas), field violet (Viola arvensis), foxtail, green (green foxtail, Setaria viridis), deadnettle (henbit deadnettle, Lamium amplexicaule), ryegrass, Ital. (Italian ryegrass, Lolium multiflorum), kochia (Kochia scoparia), lambsquarters (Chenopodium album), oilseed rape (Brassica napus), pigweed (Amaranthus retroflexus), chamomile (scentless chamomile, Matricaria inodora), speedwell (bird's-eye speedwell, Veronica persica), barley, spring (spring barley, Hordeum vulgare), wheat, spring (spring wheat, Triticum aestivum), buckwheat, wild (wild buckwheat, Polygonum convolvulus), wild mustard (Sinapis arvensis), oat, wild (wild oat, Avena fatua), radish, wild (wild radish, Raphanus raphanistrum), […]), barley, winter (winter barley, Hordeum vulgare), and wheat, winter (winter wheat, Triticum aestivum) were planted into a silt loam soil and treated preemergence with test chemicals formulated in a non-phytotoxic solvent mixture which included a surfactant. At the same time, these species were planted in pots containing Sunshine Redi-Earth® planting medium comprising spaghnum peat moss, vermiculite, starter nutrients and dolomitic limestone and treated with postemergence applications of the test chemicals formulated in the same manner. Plants ranged in height from 2 to 18 cm (1- to 4-leaf stage). Treated plants and controls were maintained in a controlled growth environment for 14 to 21 d after which time all species were compared to controls and visually evaluated. […] A dash (-) response means no test result.

velvetleaf = test: Test C preemergence; assay type: in vivo, Abutilon theophrasti; settings: for Velvetleaf plant response rating (0 to 100): Preemergence, visual rating after 13 to 15 d
Excerpt: (§2) Seeds of plant species selected from blackgrass (Alopecurus myosuroides), ryegrass, Italian (Italian ryegrass, Lolium multiflorum), wheat (winter wheat, Triticum aestivum), galium (catchweed bedstraw, Galium aparine), corn (Zea mays), crabgrass, large (large crabgrass, Digitaria sanguinalis), foxtail, giant, (giant foxtail, Setaria faberii), johnsongrass (Sorghum halepense), lambsquarters (Chenopodium album), morningglory (Ipomoea coccinea), nutsedge, yellow (yellow nutsedge, Cyperus esculentus), pigweed (Amaranthus retroflexus), ragweed (common ragweed, Ambrosia elatior), soybean (Glycine max), barnyardgrass (Echinochloa crus-galli), oilseed rape (Brassica napus), waterhemp (common waterhemp, Amaranthus rudis), and velvetleaf (Abutilon theophrasti) were planted into a blend of loam soil and sand and treated preemergence with test chemicals formulated in a non-phytotoxic solvent mixture which included a surfactant. At the same time, plants selected from these crop and weed species and also chickweed (common chickweed, Stellaria media), oat, wild (wild oat, Avena fatua), and kochia (Kochia scoparia), were planted in pots containing Sunshine Redi-Earth® planting medium comprising spaghnum peat moss, vermiculite, starter nutrients and dolomitic limestone and treated with postemergence applications of test chemicals formulated in the same manner. Plants ranged in height from 2 to 18 cm (1- to 4-leaf stage) for postemergence treatments. […] A dash (-) response means no test result.

chickweed = test: Test D preemergence; assay type: in vivo, Stellaria media; settings: for Plant response rating (0 to 100), Chickweed: 16 g ai/ha, 0 is no effect, 100 is complete control; for Plant response rating: Chickweed: scale 0 to 100
Excerpt: as §1

oat, wild = test: Test D preemergence; assay type: in vivo, Avena fatua; settings: for Plant response rating (0 to 100), Oat, Wild: 16 g ai/ha, 0 is no effect, 100 is complete control; for Plant response rating: Oat, Wild: scale 0 to 100
Excerpt: as §1

bluegrass = test: Test D postemergence; assay type: in vivo, Poa annua; settings: scale 0 to 100
Excerpt: as §1

wheat (winter wheat) = test: Test C preemergence; assay type: in vivo, Triticum aestivum; settings: for Wheat plant response rating (0 to 100): Preemergence, visual rating after 13 to 15 d
Excerpt: as §2

canarygrass [1] = test: Test D postemergence; assay type: in vivo, Phalaris minor; settings: scale 0 to 100
Excerpt: as §1

canarygrass [2] = test: Test D preemergence; assay type: in vivo, Phalaris minor; settings: for Plant response rating (0 to 100), Canarygrass: 16 g ai/ha, 0 is no effect, 100 is complete control; for Plant response rating: Canarygrass: scale 0 to 100
Excerpt: as §1

deadnettle [3] = test: Test D postemergence; assay type: in vivo, Lamium amplexicaule; settings: scale 0 to 100
Excerpt: as §1

speedwell = test: Test D postemergence; assay type: in vivo, Veronica persica; settings: scale 0 to 100
Excerpt: as §1

corn = test: Test C preemergence; assay type: in vivo, Zea mays; settings: for Plant response rating (scale of 0 to 100 where 0 is no effect and 100 is complete control): Corn, preemergence; for Corn plant response rating (0 to 100): Preemergence, visual rating after 13 to 15 d
Excerpt: as §2

deadnettle [4] = test: Test D preemergence; assay type: in vivo, Lamium amplexicaule; settings: for Plant response rating (0 to 100), Deadnettle: 16 g ai/ha, 0 is no effect, 100 is complete control; for Plant response rating: Deadnettle: scale 0 to 100
Excerpt: as §1

johnsongrass = test: Test C preemergence; assay type: in vivo, Sorghum halepense; settings: for Plant response rating (scale of 0 to 100 where 0 is no effect and 100 is complete control): Johnsongrass, preemergence; for Johnsongrass plant response rating (0 to 100): Preemergence, visual rating after 13 to 15 d
Excerpt: as §2

SMILES: FC(F)(F)COc1nc(-c2ccccc2)nn1Cc1ccnc(C(F)(F)F)c1 [Compound 24]
- Plant response rating (0 to 100), Chamomile (chamomile): 0
- Plant response rating: Chamomile (chamomile; 31 g ai/ha): 35
- Plant response rating: Chamomile (chamomile; 62 g ai/ha): 85
- Plant response rating: Chamomile (chamomile; 125 g ai/ha): 90
- Velvetleaf plant response rating (0 to 100) (velvetleaf; 31 g ai/ha): 30
- Velvetleaf plant response rating (0 to 100) (velvetleaf; 62 g ai/ha): 45
- Plant response rating (scale of 0 to 100 where 0 is no effect and 100 is complete control) (velvetleaf; Velvetleaf, preemergence, 250 g ai/ha): 60
- Plant response rating (0 to 100), Chickweed (chickweed): 55
- Plant response rating: Chickweed (chickweed; 31 g ai/ha): 60
- Plant response rating: Chickweed (chickweed; 62 g ai/ha): 70
- Plant response rating: Chickweed (chickweed; 125 g ai/ha): 90
- Plant response rating (0 to 100), Oat, Wild (oat, wild): 30
- Plant response rating: Oat, Wild (oat, wild; 62 g ai/ha): 30
- Plant response rating: Oat, Wild (oat, wild; 125 g ai/ha): 35
- Plant response rating: Bluegrass (bluegrass; 16 g ai/ha): 15
- Plant response rating: Bluegrass (bluegrass; 31 g ai/ha): 35
- Plant response rating: Bluegrass (bluegrass; 62 g ai/ha): 60
- Plant response rating: Bluegrass (bluegrass; 125 g ai/ha): 70
- Wheat plant response rating (0 to 100) (wheat (winter wheat); 31 g ai/ha): 0
- Wheat plant response rating (0 to 100) (wheat (winter wheat); 62 g ai/ha): 0
- Plant response rating (scale of 0 to 100 where 0 is no effect and 100 is complete control) (wheat (winter wheat); Wheat, preemergence, 250 g ai/ha): 5
- Plant response rating: Canarygrass (canarygrass [1]; 16 g ai/ha): 45
- Plant response rating: Canarygrass (canarygrass [1]; 31 g ai/ha): 55
- Plant response rating: Canarygrass (canarygrass [1]; 62 g ai/ha): 60
- Plant response rating: Canarygrass (canarygrass [1]; 125 g ai/ha): 70
- Plant response rating (0 to 100), Canarygrass (canarygrass [2]): 55
- Plant response rating: Canarygrass (canarygrass [2]; 31 g ai/ha): 50
- Plant response rating: Canarygrass (canarygrass [2]; 62 g ai/ha): 60
- Plant response rating: Canarygrass (canarygrass [2]; 125 g ai/ha): 75
- Plant response rating: Deadnettle (deadnettle [3]; 16 g ai/ha): 40
- Plant response rating: Deadnettle (deadnettle [3]; 31 g ai/ha): 60
- Plant response rating: Deadnettle (deadnettle [3]; 62 g ai/ha): 70
- Plant response rating: Deadnettle (deadnettle [3]; 125 g ai/ha): 85
- Plant response rating: Speedwell (speedwell; 16 g ai/ha): 75
- Plant response rating: Speedwell (speedwell; 31 g ai/ha): 75
- Plant response rating: Speedwell (speedwell; 62 g ai/ha): 75
- Plant response rating: Speedwell (speedwell; 125 g ai/ha): 90
- Plant response rating (scale of 0 to 100 where 0 is no effect and 100 is complete control) (corn; 125 g ai/ha): 25
- Plant response rating (scale of 0 to 100 where 0 is no effect and 100 is complete control) (corn; 250 g ai/ha): 40
- Corn plant response rating (0 to 100) (corn; 31 g ai/ha): 0
- Corn plant response rating (0 to 100) (corn; 62 g ai/ha): 10
- Plant response rating (0 to 100), Deadnettle (deadnettle [4]): 30
- Plant response rating: Deadnettle (deadnettle [4]; 31 g ai/ha): 80
- Plant response rating: Deadnettle (deadnettle [4]; 62 g ai/ha): 85
- Plant response rating: Deadnettle (deadnettle [4]; 125 g ai/ha): 100
- Plant response rating (scale of 0 to 100 where 0 is no effect and 100 is complete control) (johnsongrass; 125 g ai/ha): 55
- Plant response rating (scale of 0 to 100 where 0 is no effect and 100 is complete control) (johnsongrass; 250 g ai/ha): 85
- Johnsongrass plant response rating (0 to 100) (johnsongrass; 31 g ai/ha): 10
- Johnsongrass plant response rating (0 to 100) (johnsongrass; 62 g ai/ha): 40

SMILES: COc1nc(-c2ccc(Cl)cc2)nn1Cc1ccnc(C(F)(F)F)c1 [Compound 28]
- Plant response rating (0 to 100), Chamomile (chamomile): 0
- Plant response rating: Chamomile (chamomile; 31 g ai/ha): 20
- Plant response rating: Chamomile (chamomile; 62 g ai/ha): 75
- Plant response rating: Chamomile (chamomile; 125 g ai/ha): 95
- Plant response rating (0 to 100), Chickweed (chickweed): 65
- Plant response rating: Chickweed (chickweed; 31 g ai/ha): 70
- Plant response rating: Chickweed (chickweed; 62 g ai/ha): 70
- Plant response rating: Chickweed (chickweed; 125 g ai/ha): 90
- Plant response rating (0 to 100), Oat, Wild (oat, wild): 35
- Plant response rating: Oat, Wild (oat, wild; 62 g ai/ha): 30
- Plant response rating: Oat, Wild (oat, wild; 125 g ai/ha): 35
- Plant response rating: Bluegrass (bluegrass; 16 g ai/ha): 20
- Plant response rating: Bluegrass (bluegrass; 31 g ai/ha): 20
- Plant response rating: Bluegrass (bluegrass; 62 g ai/ha): 45
- Plant response rating: Bluegrass (bluegrass; 125 g ai/ha): 40
- Plant response rating: Canarygrass (canarygrass [1]; 16 g ai/ha): 25
- Plant response rating: Canarygrass (canarygrass [1]; 31 g ai/ha): 30
- Plant response rating: Canarygrass (canarygrass [1]; 62 g ai/ha): 45
- Plant response rating: Canarygrass (canarygrass [1]; 125 g ai/ha): 50
- Plant response rating (0 to 100), Canarygrass (canarygrass [2]): 10
- Plant response rating: Canarygrass (canarygrass [2]; 31 g ai/ha): 40
- Plant response rating: Canarygrass (canarygrass [2]; 62 g ai/ha): 60
- Plant response rating: Canarygrass (canarygrass [2]; 125 g ai/ha): 65
- Plant response rating: Deadnettle (deadnettle [3]; 16 g ai/ha): 50
- Plant response rating: Deadnettle (deadnettle [3]; 31 g ai/ha): 60
- Plant response rating: Deadnettle (deadnettle [3]; 62 g ai/ha): 70
- Plant response rating: Deadnettle (deadnettle [3]; 125 g ai/ha): 75
- Plant response rating: Speedwell (speedwell; 16 g ai/ha): 75
- Plant response rating: Speedwell (speedwell; 31 g ai/ha): 75
- Plant response rating: Speedwell (speedwell; 62 g ai/ha): 85
- Plant response rating: Speedwell (speedwell; 125 g ai/ha): 80
- Plant response rating (0 to 100), Deadnettle (deadnettle [4]): 20
- Plant response rating: Deadnettle (deadnettle [4]; 31 g ai/ha): 75
- Plant response rating: Deadnettle (deadnettle [4]; 62 g ai/ha): 95
- Plant response rating: Deadnettle (deadnettle [4]; 125 g ai/ha): 100
